Measured values as given in PubChem BioAssay AID330 (DTP/NCI, 2004).
Where “and” joins values, the source holds several entries; their conditions need not be identical. Identical values can stand only once. Toxic doses and inconclusive results are not listed. Rule for the calls: active = survival T/C of 150% or more; inactive = T/C below 125% in these data.

Test system: P388 leukemia ip, CD2F1 mice, survival T/C
Test: NCI In Vivo Anticancer Drug Screen. Data for tumor model P388 Leukemia (intraperitoneal) in CD2F1 (CDF1) mice
Conditions: endpoint: median survival time, higher = longer survival
How it was run: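 Mice carrying the transplanted tumor received test compound or vehicle. Survival was recorded in each group, and the value is the treated-group measurement divided by that of the vehicle-treated control group.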

[1] = dose: 60.0 mg/kg/injection, schedule: Q01DX005 (ip), vehicle: saline
[2] = dose: 120.0 mg/kg/injection, schedule: Q01DX005 (ip), vehicle: saline
[3] = dose: 240.0 mg/kg/injection, schedule: Q01DX005 (ip), vehicle: saline
[4] = dose: 12.5 mg/kg/injection, schedule: Q01DX009 (ip), vehicle: Klucel (hydroxypropylcellulose) (HPC)
[5] = dose: 25.0 mg/kg/injection, schedule: Q01DX009 (ip), vehicle: Klucel (hydroxypropylcellulose) (HPC)
[6] = dose: 50.0 mg/kg/injection, schedule: Q01DX009 (ip), vehicle: Klucel (hydroxypropylcellulose) (HPC)
[7] = dose: 100.0 mg/kg/injection, schedule: Q01DX009 (ip), vehicle: Klucel (hydroxypropylcellulose) (HPC)
[8] = dose: 50.0 mg/kg/injection, schedule: Q01DX009 (ip), vehicle: saline
[9] = dose: 100.0 mg/kg/injection, schedule: Q01DX009 (ip), vehicle: saline
[10] = dose: 200.0 mg/kg/injection, schedule: Q01DX009 (ip), vehicle: saline
[11] = dose: 60.0 mg/kg/injection, schedule: Q01DX005 (ip), vehicle: saline with Tween-80
[12] = dose: 120.0 mg/kg/injection, schedule: Q01DX005 (ip), vehicle: saline with Tween-80
[13] = dose: 240.0 mg/kg/injection, schedule: Q01DX005 (ip), vehicle: saline with Tween-80
[14] = dose: 50.0 mg/kg/injection, schedule: Q01DX005 (ip), vehicle: Klucel (hydroxypropylcellulose) (HPC)
[15] = dose: 100.0 mg/kg/injection, schedule: Q01DX005 (ip), vehicle: Klucel (hydroxypropylcellulose) (HPC)
[16] = dose: 200.0 mg/kg/injection, schedule: Q01DX005 (ip), vehicle: Klucel (hydroxypropylcellulose) (HPC)
[17] = dose: 100.0 mg/kg/injection, schedule: Q04DX003 (ip), vehicle: saline with Tween-80
[18] = dose: 200.0 mg/kg/injection, schedule: Q04DX003 (ip), vehicle: saline with Tween-80
[19] = dose: 400.0 mg/kg/injection, schedule: Q04DX003 (ip), vehicle: saline with Tween-80

Measured: T/C

O=C(O)CCCCCCCCCCOc1ccc(Cl)cc1
inactive: dose: 50.0 mg/kg/injection, schedule: Q04DX003 (ip), vehicle: Klucel (hydroxypropylcellulose) (HPC) 96 % of control | dose: 100.0 mg/kg/injection, schedule: Q04DX003 (ip), vehicle: Klucel (hydroxypropylcellulose) (HPC) 99 % of control | dose: 200.0 mg/kg/injection, schedule: Q04DX003 (ip), vehicle: Klucel (hydroxypropylcellulose) (HPC) 105 % of control | dose: 400.0 mg/kg/injection, schedule: Q04DX003 (ip), vehicle: Klucel (hydroxypropylcellulose) (HPC) 92 % of control

CS(=O)(=O)C(c1nc2nnc(N)n2[nH]c1=O)c1nc2nnc(N)n2[nH]c1=O
inactive: [1] 99 % of control | [2] 105 % of control | [3] 105 % of control

CCN(CC)C(=O)S(=O)(=O)c1ccccc1
inactive: [4] 106 % of control | [5] 101 % of control and 98 % of control | [6] 120 % of control | [7] 111 % of control | dose: 200.0 mg/kg/injection, schedule: Q01DX009 (ip), vehicle: Klucel (hydroxypropylcellulose) (HPC) 110 % of control

c1ccc(CN2CCCC3CCCC32)cc1 (centres undefined)
inactive: dose: 100.0 mg/kg/injection, schedule: Q01DX001 (ip), vehicle: saline with Tween-80 97 % of control

CN(C)c1ccc2nc3ccc(N)cc3[n+](-c3ccccc3)c2c1
inactive: dose: 3.12 mg/kg/injection, schedule: Q01DX005 (ip), vehicle: saline 106 % of control | dose: 6.25 mg/kg/injection, schedule: Q01DX005 (ip), vehicle: saline 106 % of control | dose: 12.5 mg/kg/injection, schedule: Q01DX005 (ip), vehicle: saline 112 % of control

N#Cc1c(NC(=O)CCC(=O)O)ccc2ccccc12
inactive: [8] 99 % of control | [9] 114 % of control | [10] 114 % of control

COc1cccc2c1C(=O)C1=C(C2=O)c2c(O)cc(CO)cc2C(O)C1O (centres undefined)
inactive: dose: 6.25 mg/kg/injection, schedule: Q01DX005 (ip), vehicle: saline + Tween-80 + alcohol 113 % of control | dose: 12.5 mg/kg/injection, schedule: Q01DX005 (ip), vehicle: saline + Tween-80 + alcohol 113 % of control | dose: 25.0 mg/kg/injection, schedule: Q01DX005 (ip), vehicle: saline + Tween-80 + alcohol 120 % of control

COC(=O)c1ccccc1NC(C)=NC(C)(C)C
inactive: dose: 50.0 mg/kg/injection, schedule: Q01DX009 (ip), vehicle: saline with Tween-80 103 % of control | dose: 100.0 mg/kg/injection, schedule: Q01DX009 (ip), vehicle: saline with Tween-80 90 % of control | dose: 200.0 mg/kg/injection, schedule: Q01DX009 (ip), vehicle: saline with Tween-80 90 % of control

COc1ccc(NS(=O)(=O)c2ccc(F)cc2)cc1
inactive: [11] 99 % of control | [12] 106 % of control | [13] 106 % of control

C=CCOCC(O)Cn1cnc2c(N)ncnc21 (centres undefined)
inactive: [14] 97 % of control | [15] 106 % of control | [16] 100 % of control

CCCCCCCCCCCCC(=O)N1CCOCC1
inactive: [17] 100 % of control | [18] 95 % of control | [19] 110 % of control

CN(C)CCCN1c2ccccc2Sc2ccc(F)cc21
inactive: [8] 122 % of control

CC1(CSc2ccc3ccccc3c2)CC(=O)N1 (centres undefined)
inactive: dose: 100.0 mg/kg/injection, schedule: Q01DX001 (ip), vehicle: suspension in saline 99 % of control | dose: 200.0 mg/kg/injection, schedule: Q01DX001 (ip), vehicle: suspension in saline 99 % of control | dose: 400.0 mg/kg/injection, schedule: Q01DX001 (ip), vehicle: suspension in saline 98 % of control

O=C(CCCSCCCl)Nc1c([N+](=O)[O-])cc([N+](=O)[O-])cc1S(=O)(=O)O
inactive: dose: 3.13 mg/kg/injection, schedule: Q04DX003 (ip), vehicle: DMSO 110 % of control | dose: 6.25 mg/kg/injection, schedule: Q04DX003 (ip), vehicle: DMSO 111 % of control | dose: 50.0 mg/kg/injection, schedule: Q04DX003 (ip), vehicle: DMSO 118 % of control | dose: 100.0 mg/kg/injection, schedule: Q04DX003 (ip), vehicle: olive oil, sesame oil, peanut oil 120 % of control | dose: 150.0 mg/kg/injection, schedule: Q04DX003 (ip), vehicle: DMSO 114 % of control

CN1C(=O)C(=O)N(C)C(=O)C1=O
inactive: [14] 100 % of control | [15] 93 % of control | [16] 103 % of control

COC(=O)C1c2ccccc2CC(=O)N1NC(=O)c1ccccc1 (centres undefined)
inactive: [6] 98 % of control | [7] 94 % of control

NC(c1cccc([N+](=O)[O-])c1)S(=O)(=O)O (centres undefined)
inactive: dose: 100.0 mg/kg/injection, schedule: Q04DX002 (ip), vehicle: saline 99 % of control | dose: 200.0 mg/kg/injection, schedule: Q04DX002 (ip), vehicle: saline 105 % of control | dose: 400.0 mg/kg/injection, schedule: Q04DX002 (ip), vehicle: saline 105 % of control

Cc1ccc(NC(=O)N2CCCCC2)cc1[N+](=O)[O-]
inactive: [14] 99 % of control | [15] 98 % of control | [16] 96 % of control

O=C(O)c1cocc1C(=O)O
inactive: [1] 99 % of control | [2] 86 % of control

COC(=O)C(O)c1cccc(OC)c1 (centres undefined)
inactive: [17] 113 % of control | [18] 100 % of control | [19] 109 % of control

CC(C)(C)c1ccc2c(O)c(C(C)(C)C)cc(-c3ccccc3)c2c1
inactive: [8] 107 % of control | [9] 110 % of control | [10] 106 % of control

Nc1ncncc1-c1ccc(F)cc1
inactive: [8] 103 % of control | [9] 101 % of control

COc1ccc(C2c3cc(OC(C)=O)c(OC)cc3Oc3cc(OC)c(OC(C)=O)cc32)cc1
inactive: [14] 96 % of control | [15] 93 % of control | [16] 87 % of control

CCOC(=O)c1csc(Br)n1
inactive: [11] 104 % of control | [12] 100 % of control | [13] 100 % of control

CCN(CC)CCOC(=O)c1ccc(N)c2ccccc12
inactive: dose: 50.0 mg/kg/injection, schedule: Q01DX005 (ip), vehicle: saline with Tween-80 103 % of control | dose: 100.0 mg/kg/injection, schedule: Q01DX005 (ip), vehicle: saline with Tween-80 100 % of control

CCCCCc1onc(-c2noc(CCCCC)c2C)c1C
inactive: [1] 100 % of control | [2] 99 % of control | [3] 104 % of control

O=C(O)CSc1ccc2c3c(cccc13)C(=O)c1ccccc1-2
inactive: dose: 6.25 mg/kg/injection, schedule: Q01DX009 (ip), vehicle: saline 100 % of control | dose: 12.5 mg/kg/injection, schedule: Q01DX009 (ip), vehicle: saline 99 % of control and 111 % of control | dose: 25.0 mg/kg/injection, schedule: Q01DX009 (ip), vehicle: saline 111 % of control | [8] 108 % of control | [9] 104 % of control

c1ccc(CN2COc3c(ccc4c3OCN(Cc3ccccc3)C4)C2)cc1
inactive: dose: 3.12 mg/kg/injection, schedule: Q01DX009 (ip), vehicle: Klucel (hydroxypropylcellulose) (HPC) 107 % of control | dose: 6.25 mg/kg/injection, schedule: Q01DX009 (ip), vehicle: Klucel (hydroxypropylcellulose) (HPC) 104 % of control and 95 % of control | [4] 103 % of control | [5] 94 % of control
